Assay results from patent US20080033026A1, “Antimicrobial compositions, methods and systems” (priority 2006, published 2008).

What was measured:
Type in all cases: cell-based
[1] = tested on: Candida albicans (ATCC 10231); assay: MIC and MBC determination (broth dilution)
Experimental: (§1) The determination of the MIC and MBC of 9-decenoic acid conformed to the procedure printed in the Federal Register, June 1994 and the present NCCLS M11-A4 protocol. Challenge organisms were prepared as follows. The MIC and MBC of 9-decenoic acid and the methyl ester of 9-decenoic acid were determined for the following challenge organisms: Staphylococcus aureus (ATCC 6538), Pseudomonas aeruginosa (ATCC 15442), Staphylococcus epidermidis (ATCC 12228), Klebsiella pneumoniae (ATCC 4352), Escherichia coli 0157:H7 (ATCC 43895) and Candida albicans (ATCC 10231). Stock cultures of each organism were transferred onto suitable culture media, Mueller-Hinton Agar (MHA) plates, and incubated for 24 hours (+2 hours) at 37° C. (+2° C.). On the day of the test, the top of at least three to five well-isolated colonies were transferred via wire loop to a tube containing 4 to 5 ml of Trypticase Soy Broth (TSB). The TSB culture was incubated for 2 to 6 hours and turbidity was adjusted with sterile saline to achieve the turbidity of a McFarland 0.5 Standard.
(§2) The concentrated 9-decenoic acid (97%) was diluted in Mueller-Hinton Broth (MHB) to yield a 25,000 ppm stock solution of the 9-decenoic acid. For each organism, 12 dilutions of the 9-decenoic acid in MHB were prepared ranging from 0.25% to 0.00049%. The test solution of the methyl ester of 9-decenoic acid was formulated in the same manner.
(§3) A 2-ml aliquot of appropriately diluted 9-decenoic acid solution or methyl ester of 9-decenoic acid was placed in each tube. Each tube was inoculated with 0.05 ml of a 1:10 dilution of one challenge organism. Tubes were incubated at 37° C. (±2° C.) for 20-24 hours and observed for microbial growth visually and by spectrophotometer. […] (±2° C.) for 20-24 hours and visually observed for growth.
(§4) Controls were run for sterility, viability and organism confirmation. It was determined that all cultures were viable and pure.
(§5) The MBC was defined as the concentration of 9-decenoic acid or the methyl ester of 9-decenoic acid that completely eradicated viable organisms from the test system.

[2] = tested on: Escherichia coli 0157:H7 (ATCC 43895); assay: MIC and MBC determination (broth dilution)
Experimental: as §1, §2, §3, §4, §5

[3] = tested on: Klebsiella pneumoniae (ATCC 4352); assay: MIC and MBC determination (broth dilution); details: Mueller-Hinton Broth, 20-24 h, 37° C.
Experimental: as §1, §2, §3, §4, §5

[4] = tested on: Pseudomonas aeruginosa (ATCC 15442); assay: MIC and MBC determination (broth dilution); details: Mueller-Hinton Broth, 20-24 h, 37° C.
Experimental: as §1, §2, §3, §4, §5

[5] = tested on: Listeria monocytogenes (ATCC 19111); assay: Preservative effectiveness on food pathogens (US Pharmacopoeia 23)
Experimental: (§6) The effectiveness of 9-decenoic acid on food pathogens was determined using the protocol on preservative effectiveness found in the US Pharmacopoeia 23, 1995.
(§7) Stock cultures of the Listeria monocytogenes (ATCC 1911-1), Salmonella enteritidis (ATCC 13076) and Campylobacter jejuni (ATCC 29428) were transferred for at least three consecutives days on Trypticase Soy Agar (TSA) and incubated at 30-35° C. for 18-24 hours. On the day of the test, the cells were washed from the agar surface with sterile saline containing 0.05% w/v Polysorbate 80 (SS+) and the suspension was centrifuged at 2000 rpm for 15 minutes and resuspended in SS+. The suspension was diluted to approximately 10^8 CFU/ml.
(§8) The 9-decenoic acid was diluted in the same manner as previously described to achieve concentrations of 0.25%, 0.125%, 0.0625%, 0.03%, 0.015%, 0.0078% and 0.0039%. The samples were dispensed in 20 ml aliquots in sterile test tubes. For each concentration tested, a 0.1 ml aliquot of each inoculum was added to a final concentration of 10^5 to 10^6 CFU/ml. The tubes were incubated at room temperature and sampled on days 0, 1, 2, 4, 7, 14, 21 and 28.
(§9) At each sample point, 1.0 ml aliquots were withdrawn, serially diluted and plated in triplicate on TSA. The plates were incubated at 30-35° C. for 2-4 days. The colonies were counted and the average CFU/ml was calculated. Controls for purity, viability and sterility were performed as described previously.
(§10) According to the US Pharmacopoeia, a test compound is an effective preservative if the concentrations of viable bacteria remain at or below the initial concentrations during the first fourteen days and after 28 days.
(§11) Additionally, test organisms in Tables 9-11 were exposed to the 9-decenoic acid for several minutes before analysis at Day 0. As shown in the Tables 9-11, significant biocidal activity was observed even within this short time period for the test organisms, illustrating the effectiveness of 9-decenoic acid as a biocidal agent.

[6] = tested on: Salmonella enteritidis (ATCC 13076); assay: as above
Experimental: as §6, §7, §8, §9, §10, §11

[7] = Mueller-Hinton Broth, 20-24 h, 37° C.
[8] = 0.0078% 9-decenoic acid, exposure day 0
[9] = 0.0078% 9-decenoic acid, exposure day 1
[10] = 0.0078% 9-decenoic acid, exposure day 2
[11] = 0.0078% 9-decenoic acid, exposure day 4
[12] = 0.0078% 9-decenoic acid, exposure day 7
[13] = 0.0078% 9-decenoic acid, exposure day 14
[14] = 0.0078% 9-decenoic acid, exposure day 21
[15] = 0.0078% 9-decenoic acid, exposure day 28
[16] = 0.015% 9-decenoic acid, exposure day 0
[17] = 0.015% 9-decenoic acid, exposure day 1
[18] = 0.015% 9-decenoic acid, exposure day 2
[19] = 0.015% 9-decenoic acid, exposure day 4
[20] = 0.015% 9-decenoic acid, exposure day 7
[21] = 0.015% 9-decenoic acid, exposure day 14
[22] = 0.015% 9-decenoic acid, exposure day 21
[23] = 0.015% 9-decenoic acid, exposure day 28
[24] = 0.03% 9-decenoic acid, exposure day 0
[25] = 0.03% 9-decenoic acid, exposure day 1
[26] = 0.03% 9-decenoic acid, exposure day 2
[27] = 0.03% 9-decenoic acid, exposure day 4
[28] = 0.03% 9-decenoic acid, exposure day 7
[29] = 0.03% 9-decenoic acid, exposure day 14
[30] = 0.03% 9-decenoic acid, exposure day 21
[31] = 0.03% 9-decenoic acid, exposure day 28
[32] = US Pharmacopoeia definition, 28 days

C=CCCCCCCCC(=O)O [9-decenoic acid]
4.1 log: Log reduction [6, 10]
5.1 log: Log reduction [5, 9] | Log reduction [5, 10] | Log reduction [5, 11] | Log reduction [5, 12] | Log reduction [5, 13] | Log reduction [5, 14] | Log reduction [5, 15] | Log reduction [5, 16] | Log reduction [5, 17] | Log reduction [5, 18] | Log reduction [5, 19] | Log reduction [5, 20] | Log reduction [5, 21] | Log reduction [5, 22] | Log reduction [5, 23] | Log reduction [5, 24] | Log reduction [5, 25] | Log reduction [5, 26] | Log reduction [5, 27] | Log reduction [5, 28] | Log reduction [5, 29] | Log reduction [5, 30] | Log reduction [5, 31] | Log reduction [6, 12] | Log reduction [6, 13] | Log reduction [6, 14] | Log reduction [6, 15] | Log reduction [6, 16] | Log reduction [6, 17] | Log reduction [6, 18] | Log reduction [6, 19] | Log reduction [6, 20] | Log reduction [6, 21] | Log reduction [6, 22] | Log reduction [6, 23] | Log reduction [6, 24] | Log reduction [6, 25] | Log reduction [6, 26] | Log reduction [6, 27] | Log reduction [6, 28] | Log reduction [6, 29] | Log reduction [6, 30] | Log reduction [6, 31]
4.0 log: Log reduction [6, 11]
3.2 log: Log reduction [6, 9]
1.0 log: Log reduction [5, 8]
0 days: Exposure time at which bactericidal ([5]; at 150 ppm) | Exposure time at which bactericidal ([6]; at 0.015%)
7 days: Exposure time at which bactericidal ([6]; at 0.0078%)
≤ 0.0078%: Concentration at which effective preservative [5, 32] | Concentration at which effective preservative [6, 32]
0.0625%: MIC [1, 7] | MBC ([1]; subculture on TSA) | MIC [3] | MIC [4]
1 days: Exposure time at which bactericidal ([5]; at 0.0078%)
0.53 log: Log reduction [6, 8]
0.125%: MIC [2, 7] | MBC ([2]; subculture on TSA)
